Reference: paper PMC8484505 (Cell Reports Medicine, 2021)
Each block holds one compound with its values, some of them ahead of it.

Assays:
[1] = Population PK analysis of oral semaglutide in PIONEER 1, 2, 3, 5, 8 and 9; type: in vivo, human
[2] = stated in discussion, no reference given; cited from earlier work
[3] = SUSTAIN-6, T2D population with high CV risk; cited from earlier work

- exposure compared to subjects not reporting GI disease ([1]; 174 subjects with chronic gastritis): No effect differences
- fraction of subjects with exposure levels considered below the therapeutic range ([1]; oral semaglutide 14 mg): 3%
Compound: CC[C@H](C)[C@H](NC(=O)[C@H](Cc1ccccc1)NC(=O)[C@H](CCC(=O)O)NC(=O)[C@H](CCCCNC(=O)COCCOCCNC(=O)COCCOCCNC(=O)CC[C@H](NC(=O)CCCCCCCCCCCCCCCCC(=O)O)C(=O)O)NC(=O)[C@H](C)NC(=O)[C@H](C)NC(=O)[C@H](CCC(N)=O)NC(=O)CNC(=O)[C@H](CCC(=O)O)NC(=O)[C@H](CC(C)C)NC(=O)[C@H](Cc1ccc(O)cc1)NC(=O)[C@H](CO)NC(=O)[C@H](CO)NC(=O)[C@@H](NC(=O)[C@H](CC(=O)O)NC(=O)[C@H](CO)NC(=O)[C@@H](NC(=O)[C@H](Cc1ccccc1)NC(=O)[C@@H](NC(=O)CNC(=O)[C@H](CCC(=O)O)NC(=O)C(C)(C)NC(=O)[C@@H](N)Cc1cnc[nH]1)[C@@H](C)O)[C@@H](C)O)C(C)C)C(=O)N[C@@H](C)C(=O)N[C@@H](Cc1c[nH]c2ccccc12)C(=O)N[C@@H](CC(C)C)C(=O)N[C@H](C(=O)N[C@@H](CCCNC(=N)N)C(=O)NCC(=O)N[C@@H](CCCNC(=N)N)C(=O)NCC(=O)O)C(C)C [oral semaglutide, semaglutide]
- lower exposure compared to subjects not reporting GI disease ([1]; 34 patients with gastric ulcer, non-significant): 11%

Compound: semaglutide
- half-life [2]: ~1 week

Compound: semaglutide [s.c. semaglutide]
- reduction in the hazard ratio of major adverse cardiovascular events (MACE) [3]: 26%
